Laboratory results reported in patent US11446287B2, “Compounds and methods for EP300 or CBP modulation and indications therefor” (Opna Immuno-Oncology SA, priority 2019, dated 2022).

target: T1, Recombinant human CBP containing the bromodomain (CBP-BD (1043-1159)) (Homo sapiens, UniProt Q92793); assay: CBP Alphascreen binding assay; conditions: read-out: CREBBP (CBP) IC50
T1 construct: Recombinant human CBP bromodomain (CBP-BD (1043-1159)); made in house; host or cells: E. coli BL21-CodonPlus (DE3), modified pET vector
T1 sequence (Q92793 1081-1197): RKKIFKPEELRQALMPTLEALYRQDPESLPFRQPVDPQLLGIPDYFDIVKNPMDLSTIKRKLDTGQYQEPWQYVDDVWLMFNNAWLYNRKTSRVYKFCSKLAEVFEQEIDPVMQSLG
How it was run: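 Buffer: 50 mM HEPES pH 7.5, 50 mM NaCl, 0.01% BSA, 0.01% Triton X-100, 2 mM DTT. The signal was normalised to plate controls and fitted with a four-parameter curve to give IC50.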

Row | SMILES | IC50 [nM]
1 | CCOc1ccc(C(=O)O)cc1-n1cc(-c2ccccc2)c2ncc(-c3c(C)noc3C)cc21 [P-0225, 3-(6-(3,5-dimethylisoxazol-4-yl)-3-phenyl-1H-pyrrolo[3,2-b]pyridin-1-yl)-4-ethoxybenzoic acid] | 0.1 to 1000
2 | Cc1noc(C)c1-c1cnc2c(c1)c(-c1ccc(C(=O)O)cc1OC(F)(F)F)cn2C1CCOCC1 [P-0226, 4-(5-(3,5-dimethylisoxazol-4-yl)-1-(tetrahydro-2H-pyran-4-yl)-1H-pyrrolo[2,3-b]pyridin-3-yl)-3-(trifluoromethoxy)benzoic acid] | 0.1 to 1000
3 | Cc1noc(C)c1-c1cnc2c(c1)c(-c1ccc(C(=O)O)cc1OC(F)(F)F)cn2C1CCC(F)(F)CC1 [P-0227, 4-(1-(4,4-difluorocyclohexyl)-5-(3,5-dimethylisoxazol-4-yl)-1H-pyrrolo[2,3-b]pyridin-3-yl)-3-(trifluoromethoxy)benzoic acid] | 0.1 to 1000
4 | Cc1noc(C)c1-c1cnc2c(c1)c(-c1ccc(C(=O)O)cc1OC(F)(F)F)c(C)n2-c1ccccn1 [P-0228, 4-(5-(3,5-dimethylisoxazol-4-yl)-2-methyl-1-(pyridin-2-yl)-1H-pyrrolo[2,3-b]pyridin-3-yl)-3-(trifluoromethoxy)benzoic acid] | 0.1 to 1000
5 | Cc1noc(C)c1-c1cnc2c(-c3ccc(F)cc3F)cn(-c3ccc(C(=O)O)cc3OC(F)(F)F)c2c1 [P-0229, 4-(3-(2,4-difluorophenyl)-6-(3,5-dimethylisoxazol-4-yl)-1H-pyrrolo[3,2-b]pyridin-1-yl)-3-(trifluoromethoxy)benzoic acid] | 0.1 to 1000
6 | Cc1noc(C)c1-c1cnc2c(c1)c(-c1c(F)cc(C(=O)O)cc1OC(F)(F)F)cn2C(C1CC1)C1CC1 [P-0230, 4-(1-(dicyclopropylmethyl)-5-(3,5-dimethylisoxazol-4-yl)-1H-pyrrolo[2,3-b]pyridin-3-yl)-3-fluoro-5-(trifluoromethoxy)benzoic acid] | 0.1 to 1000
7 | Cc1ccccc1-n1cc(-c2ccc(C(=O)O)cc2OC(F)(F)F)c2cc(-c3c(C)noc3C)cnc21 [P-0231, 4-(5-(3,5-dimethylisoxazol-4-yl)-1-(o-tolyl)-1H-pyrrolo[2,3-b]pyridin-3-yl)-3-(trifluoromethoxy)benzoic acid] | 0.1 to 1000
8 | Cc1noc(C)c1-c1cnc2c(c1)c(-c1ccc(C(=O)O)cc1OC(F)(F)F)cn2-c1ccc(F)cc1F [P-0232, 4-(1-(2,4-difluorophenyl)-5-(3,5-dimethylisoxazol-4-yl)-1H-pyrrolo[2,3-b]pyridin-3-yl)-3-(trifluoromethoxy)benzoic acid] | 0.1 to 1000
9 | Cc1noc(C)c1-c1cnc2c(c1)c(-c1ccc(C(=O)O)cc1OC(F)(F)F)cn2-c1cc(F)ccc1F [P-0233, 4-(1-(2,5-difluorophenyl)-5-(3,5-dimethylisoxazol-4-yl)-1H-pyrrolo[2,3-b]pyridin-3-yl)-3-(trifluoromethoxy)benzoic acid] | 0.1 to 1000
10 | Cc1noc(C)c1-c1cnc2c(-c3ccc(C(=O)O)cc3F)c(C(F)(F)F)n([C@@H](C)c3ccccn3)c2c1 [P-0234, (S)-4-(6-(3,5-dimethylisoxazol-4-yl)-1-(1-(pyridin-2-yl)ethyl)-2-(trifluoromethyl)-1H-pyrrolo[3,2-b]pyridin-3-yl)-3-fluorobenzoic acid] | 0.1 to 1000
11 | Cc1cc(C(=O)O)ccc1-c1c(C(F)(F)F)n([C@@H](C)c2ccccn2)c2cc(-c3c(C)noc3C)cnc12 [P-0235, (S)-4-(6-(3,5-dimethylisoxazol-4-yl)-1-(1-(pyridin-2-yl)ethyl)-2-(trifluoromethyl)-1H-pyrrolo[3,2-b]pyridin-3-yl)-3-methylbenzoic acid] | 0.1 to 1000
12 | COc1cc(C(=O)O)ccc1-c1c(C(F)(F)F)n([C@@H](C)c2ccccn2)c2cc(-c3c(C)noc3C)cnc12 [P-0236, (S)-4-(6-(3,5-dimethylisoxazol-4-yl)-1-(1-(pyridin-2-yl)ethyl)-2-(trifluoromethyl)-1H-pyrrolo[3,2-b]pyridin-3-yl)-3-methoxybenzoic acid] | 0.1 to 1000
